# In patent publication US8247211B2, “Glycopeptide antibiotics” (American Cyanamid Company, priority 2001, dated 2012):
# Experiments:
# Assay in all cases: In vitro antibacterial evaluation: minimum inhibitory concentration (MIC), broth dilution method
# Format in all cases: cell-based
# Escherichia coli = conditions: for MIC Escherichia coli (ATCC 25922): strain ATCC 25922; for MIC Escherichia coli (GC 4559): strain GC 4559
# Outline: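 An MIC is reported for each organism as the least concentration giving inhibition, using broth dilution over 64-0.06 μg/mL with a 5×10^5 CFU/mL inoculum.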
# Streptococcus sp. = test system: Streptococcus sp.
# Outline: (§1)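 MIC by broth dilution in Mueller-Hinton II medium following NCCLS M7-A2. Inoculum was 5×10^5 CFU/mL and antibiotic was tested over 64-0.06 μg/mL. Gram-positive panel included clinical isolates resistant to methicillin, penicillin and/or vancomycin.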
# Staphylococcus sp. = test system: Staphylococcus sp.
# Outline: as §1
# Enterococcus sp. = test system: Enterococcus sp.
# Outline: as §1
# [1] = broth dilution, 5×10^5 CFU/mL, 18 hours at 35° C.
# [2] = strain ATCC 29213, broth dilution, 18 hours at 35° C.
# [3] = strain GC 1131, broth dilution, 18 hours at 35° C.
# [4] = strain GC 3051, broth dilution, 18 hours at 35° C.
# [5] = strain GC 3053, broth dilution, 18 hours at 35° C.
# [6] = strain GC 4541, broth dilution, 18 hours at 35° C.
# [7] = strain GC 4542, broth dilution, 18 hours at 35° C.
# [8] = strain GC 4544, broth dilution, 18 hours at 35° C.
# [9] = strain GC 4545, broth dilution, 18 hours at 35° C.
# [10] = broth dilution, inoculum 5×10^5 CFU/mL, 18 hours at 35° C.
compound,measurement,setting,value
"CC(c1ccccc1)C1NC(=O)CNC(=O)C(CO)NC(=O)C(C(O)C2CNC(=N)N2C2OC(CO)C(O)C(O)C2O)NC(=O)C(C(O)C2CNC(=N)N2)NC(=O)C(Cc2ccc(OC3OC(CO)C(OC4OC5COC(c6ccc(S(C)(=O)=O)cc6)OC5C(O)C4O)C(O)C3O)cc2)NC1=O (stereo not drawn) [Example 157, Cyclo[glycyl-β-methylphenylalanyl-O-[4-O-[4,6-O-(4-(methylsulfonyl)benzylidene)hexopyranosyl]hexopyranosyl]tyrosyl-3-(2-iminoimidazolidin-4-yl)seryl-3-(3-hexopyranosyl-2-iminoimidazolidin-4-yl)serylseryl]]",MIC Escherichia coli (ATCC 25922),Escherichia coli,>64 µg/mL
same,MIC Escherichia coli (GC 4559),Escherichia coli,>64 µg/mL
same,MIC Streptococcus pneumoniae (ATCC 6301),Streptococcus sp.; strain ATCC 6301,4 µg/mL
same,MIC Streptococcus pneumoniae (GC 1894),Streptococcus sp.; strain GC 1894,4 µg/mL
same,MIC Streptococcus pyogenes (GC 4563),Streptococcus sp.; strain GC 4563,8 µg/mL
same,MIC Streptococcus agalactiae (GC 4564),Streptococcus sp.; strain GC 4564,16 µg/mL
same,MIC Streptococcus pneumoniae (GC 4565),Streptococcus sp.; strain GC 4565,4 µg/mL
same,MIC Coagulase Negative Staphylococcus (GC 4547),Staphylococcus sp.; [1],16 µg/mL
same,MIC Coagulase Negative Staphylococcus (GC 4548),Staphylococcus sp.; [1],8 µg/mL
same,MIC Coagulase Negative Staphylococcus (GC 4549),Staphylococcus sp.; [1],8 µg/mL
same,MIC Coagulase Negative Staphylococcus (GC 4551),Staphylococcus sp.; [1],32 µg/mL
same,MIC Coagulase Negative Staphylococcus (GC 6257),Staphylococcus sp.; [1],4 µg/mL
same,MIC Staphylococcus aureus (ATCC 29213),Staphylococcus sp.; [1],32 µg/mL
same,MIC Staphylococcus aureus (GC 1131),Staphylococcus sp.; [1],32 µg/mL
same,MIC Staphylococcus aureus (GC 3051),Staphylococcus sp.; [1],16 µg/mL
same,MIC Staphylococcus aureus (GC 3053),Staphylococcus sp.; [1],32 µg/mL
same,MIC Staphylococcus aureus (GC 4541),Staphylococcus sp.; [1],16 µg/mL
same,MIC Staphylococcus aureus (GC 4542),Staphylococcus sp.; [1],32 µg/mL
same,MIC Staphylococcus aureus (GC 4544),Staphylococcus sp.; [1],32 µg/mL
same,MIC Staphylococcus aureus (GC 4545),Staphylococcus sp.; [1],16 µg/mL
same,MIC Staphylococcus aureus-SMITH (GC 4543),Staphylococcus sp.; [1],16 µg/mL
same,MIC Staphylococcus haemolyticus (GC 4546),Staphylococcus sp.; [1],16 µg/mL
same,MIC Staphylococcus aureus (ATCC 29213),Staphylococcus sp.; [2],32 µg/mL
same,MIC Staphylococcus aureus (GC 1131),Staphylococcus sp.; [3],32 µg/mL
same,MIC Staphylococcus aureus (GC 3051),Staphylococcus sp.; [4],16 µg/mL
same,MIC Staphylococcus aureus (GC 3053),Staphylococcus sp.; [5],32 µg/mL
same,MIC Staphylococcus aureus (GC 4541),Staphylococcus sp.; [6],16 µg/mL
same,MIC Staphylococcus aureus (GC 4542),Staphylococcus sp.; [7],32 µg/mL
same,MIC Staphylococcus aureus-SMITH (GC 4543),"Staphylococcus sp.; strain GC 4543, broth dilution, 18 hours at 35° C.",16 µg/mL
same,MIC Staphylococcus aureus (GC 4544),Staphylococcus sp.; [8],32 µg/mL
same,MIC Staphylococcus aureus (GC 4545),Staphylococcus sp.; [9],16 µg/mL
same,MIC Staphylococcus haemolyticus (GC 4546),"Staphylococcus sp.; strain GC 4546, broth dilution, 18 hours at 35° C.",16 µg/mL
same,MIC Coagulase Negative Staphylococcus (GC 4547),"Staphylococcus sp.; strain GC 4547, broth dilution, 18 hours at 35° C.",16 µg/mL
same,MIC Coagulase Negative Staphylococcus (GC 4548),"Staphylococcus sp.; strain GC 4548, broth dilution, 18 hours at 35° C.",8 µg/mL
same,MIC Coagulase Negative Staphylococcus (GC 4549),"Staphylococcus sp.; strain GC 4549, broth dilution, 18 hours at 35° C.",8 µg/mL
same,MIC Coagulase Negative Staphylococcus (GC 4551),"Staphylococcus sp.; strain GC 4551, broth dilution, 18 hours at 35° C.",32 µg/mL
same,MIC Coagulase Negative Staphylococcus (GC 6257),"Staphylococcus sp.; strain GC 6257, broth dilution, 18 hours at 35° C.",4 µg/mL
same,MIC Enterococcus avium (GC 4558),Enterococcus sp.; [10],64 µg/mL
same,MIC Enterococcus faecalis (ATCC 29212),Enterococcus sp.; [10],>64 µg/mL
same,MIC Enterococcus faecalis (GC 4552),Enterococcus sp.; [10],>64 µg/mL
same,MIC Enterococcus faecalis (GC 4553),Enterococcus sp.; [10],>64 µg/mL
same,MIC Enterococcus faecalis (GC 4554),Enterococcus sp.; [10],>64 µg/mL
same,MIC Enterococcus faecalis (GC 6189),Enterococcus sp.; [10],>64 µg/mL
same,MIC Enterococcus faecium (GC 2243),Enterococcus sp.; [10],64 µg/mL
same,MIC Enterococcus faecium (GC 4556),Enterococcus sp.; [10],>64 µg/mL
same,MIC Enterococcus faecium (GC 4557),Enterococcus sp.; [10],8 µg/mL
same,MIC Enterococcus faecalis (ATCC 29212),Enterococcus sp.; strain ATCC 29212,>64 µg/mL
same,MIC Enterococcus faecalis (GC 2242),Enterococcus sp.; strain GC 2242,64 µg/mL
same,MIC Enterococcus faecium (GC 2243),Enterococcus sp.; strain GC 2243,64 µg/mL
same,MIC Enterococcus faecalis (GC 2691),Enterococcus sp.; strain GC 2691,>64 µg/mL
same,MIC Enterococcus faecalis (GC 3059),Enterococcus sp.; strain GC 3059,>64 µg/mL
same,MIC Enterococcus faecalis (GC 4552),Enterococcus sp.; strain GC 4552,>64 µg/mL
same,MIC Enterococcus faecalis (GC 4553),Enterococcus sp.; strain GC 4553,>64 µg/mL
same,MIC Enterococcus faecalis (GC 4554),Enterococcus sp.; strain GC 4554,>64 µg/mL
same,MIC Enterococcus faecium (GC 4556),Enterococcus sp.; strain GC 4556,>64 µg/mL
same,MIC Enterococcus faecium (GC 4557),Enterococcus sp.; strain GC 4557,8 µg/mL
same,MIC Enterococcus avium (GC 4558),Enterococcus sp.; strain GC 4558,64 µg/mL
same,MIC Enterococcus faecalis (GC 6189),Enterococcus sp.; strain GC 6189,>64 µg/mL
"CC(c1ccccc1)C1NC(=O)CNC(=O)C(CO)NC(=O)C(C(O)C2CNC(=N)N2C2OC(CO)C(O)C(O)C2O)NC(=O)C(C(O)C2CNC(=N)N2)NC(=O)C(Cc2ccc(OC3OC(CO)C(OC4OC5COC(c6ccc(Oc7ccc(C(C)(C)C)cc7)cc6)OC5C(O)C4O)C(O)C3O)cc2)NC1=O (stereo not drawn) [Example 181, Cyclo[glycyl-β-methylphenylalanyl-O-[4-O-[4,6-O-[4-(4-tert-butylphenoxy)benzylidene]hexopyranosyl]hexopyranosyl]tyrosyl-3-(2-iminoimidazolidin-4-yl)seryl-3-(3-hexopyranosyl-2-iminoimidazolidin-4-yl)serylseryl]]",MIC Escherichia coli (ATCC 25922),Escherichia coli,>64 µg/mL
same,MIC Escherichia coli (GC 4559),Escherichia coli,>64 µg/mL
same,MIC Escherichi coli (GC 4560),Escherichia coli; strain GC 4560,16 µg/mL
same,MIC Streptococcus agalactiae (GC 4564),Streptococcus sp.; [10],<0.06 µg/mL
same,MIC Streptococcus pneumoniae (ATCC 6301),Streptococcus sp.; [10],<0.06 µg/mL
same,MIC Streptococcus pneumoniae (GC 1894),Streptococcus sp.; [10],<0.06 µg/mL
same,MIC Streptococcus pneumoniae (GC 4565),Streptococcus sp.; [10],<0.06 µg/mL
same,MIC Streptococcus pyogenes (GC 4563),Streptococcus sp.; [10],0.5 µg/mL
same,MIC Streptococcus pneumoniae (ATCC 6301),Streptococcus sp.; strain ATCC 6301,<0.06 µg/mL
same,MIC Streptococcus pneumoniae (GC 1894),Streptococcus sp.; strain GC 1894,<0.06 µg/mL
same,MIC Streptococcus pyogenes (GC 4563),Streptococcus sp.; strain GC 4563,0.5 µg/mL
same,MIC Streptococcus agalactiae (GC 4564),Streptococcus sp.; strain GC 4564,<0.06 µg/mL
same,MIC Streptococcus pneumoniae (GC 4565),Streptococcus sp.; strain GC 4565,<0.06 µg/mL
same,MIC Staphylococcus aureus (ATCC 29213),Staphylococcus sp.; [1],4 µg/mL
same,MIC Staphylococcus aureus (GC 1131),Staphylococcus sp.; [1],4 µg/mL
same,MIC Staphylococcus aureus (GC 3051),Staphylococcus sp.; [1],4 µg/mL
same,MIC Staphylococcus aureus (GC 3053),Staphylococcus sp.; [1],4 µg/mL
same,MIC Staphylococcus aureus (GC 4541),Staphylococcus sp.; [1],4 µg/mL
same,MIC Staphylococcus aureus (GC 4542),Staphylococcus sp.; [1],4 µg/mL
same,MIC Staphylococcus aureus (GC 4544),Staphylococcus sp.; [1],4 µg/mL
same,MIC Staphylococcus aureus (GC 4545),Staphylococcus sp.; [1],4 µg/mL
same,MIC Staphylococcus aureus (ATCC 29213),Staphylococcus sp.; [2],4 µg/mL
same,MIC Staphylococcus aureus (GC 1131),Staphylococcus sp.; [3],4 µg/mL
same,MIC Staphylococcus aureus (GC 3051),Staphylococcus sp.; [4],4 µg/mL
same,MIC Staphylococcus aureus (GC 3053),Staphylococcus sp.; [5],4 µg/mL
same,MIC Staphylococcus aureus (GC 4541),Staphylococcus sp.; [6],4 µg/mL
same,MIC Staphylococcus aureus (GC 4542),Staphylococcus sp.; [7],4 µg/mL
same,MIC Staphylococcus aureus-SMITH (GC 4543),Staphylococcus sp.; strain GC 4543,4 µg/mL
same,MIC Staphylococcus aureus (GC 4544),Staphylococcus sp.; [8],4 µg/mL
same,MIC Staphylococcus aureus (GC 4545),Staphylococcus sp.; [9],4 µg/mL
same,MIC Staphylococcus haemolyticus (GC 4546),Staphylococcus sp.; strain GC 4546,8 µg/mL
same,MIC Coagulase Negative Staphylococcus (GC 4547),Staphylococcus sp.; strain GC 4547,8 µg/mL
same,MIC Coagulase Negative Staphylococcus (GC 4548),Staphylococcus sp.; strain GC 4548,2 µg/mL
same,MIC Coagulase Negative Staphylococcus (GC 4549),Staphylococcus sp.; strain GC 4549,1 µg/mL
same,MIC Coagulase Negative Staphylococcus (GC 4551),Staphylococcus sp.; strain GC 4551,2 µg/mL
same,MIC Coagulase Negative Staphylococcus (GC 6257),Staphylococcus sp.; strain GC 6257,2 µg/mL
same,MIC Enterococcus avium (GC 4558),Enterococcus sp.; [10],4 µg/mL
same,MIC Enterococcus faecalis (ATCC 29212),Enterococcus sp.; [10],2 µg/mL
same,MIC Enterococcus faecalis (GC 2242),Enterococcus sp.; [10],2 µg/mL
same,MIC Enterococcus faecalis (GC 2691),Enterococcus sp.; [10],4 µg/mL
same,MIC Enterococcus faecalis (GC 3059),Enterococcus sp.; [10],4 µg/mL
same,MIC Enterococcus faecalis (GC 4552),Enterococcus sp.; [10],2 µg/mL
same,MIC Enterococcus faecalis (GC 4553),Enterococcus sp.; [10],1 µg/mL
same,MIC Enterococcus faecalis (GC 4554),Enterococcus sp.; [10],2 µg/mL
same,MIC Enterococcus faecalis (GC 6189),Enterococcus sp.; [10],2 µg/mL
same,MIC Enterococcus faecium (GC 2243),Enterococcus sp.; [10],2 µg/mL
same,MIC Enterococcus faecium (GC 4556),Enterococcus sp.; [10],4 µg/mL
same,MIC Enterococcus faecium (GC 4557),Enterococcus sp.; [10],4 µg/mL
same,MIC Enterococcus faecalis (ATCC 29212),Enterococcus sp.; strain ATCC 29212,2 µg/mL
same,MIC Enterococcus faecalis (GC 2242),Enterococcus sp.; strain GC 2242,2 µg/mL
same,MIC Enterococcus faecium (GC 2243),Enterococcus sp.; strain GC 2243,2 µg/mL
same,MIC Enterococcus faecalis (GC 2691),Enterococcus sp.; strain GC 2691,4 µg/mL
same,MIC Enterococcus faecalis (GC 3059),Enterococcus sp.; strain GC 3059,4 µg/mL
same,MIC Enterococcus faecalis (GC 4552),Enterococcus sp.; strain GC 4552,2 µg/mL
same,MIC Enterococcus faecalis (GC 4553),Enterococcus sp.; strain GC 4553,1 µg/mL
same,MIC Enterococcus faecalis (GC 4554),Enterococcus sp.; strain GC 4554,2 µg/mL
same,MIC Enterococcus faecium (GC 4556),Enterococcus sp.; strain GC 4556,4 µg/mL
same,MIC Enterococcus faecium (GC 4557),Enterococcus sp.; strain GC 4557,4 µg/mL
same,MIC Enterococcus avium (GC 4558),Enterococcus sp.; strain GC 4558,4 µg/mL
same,MIC Enterococcus faecalis (GC 6189),Enterococcus sp.; strain GC 6189,2 µg/mL
